Consider six compounds from ChEMBL document CHEMBL1671765, “Microbiologic and clinical implications of bacteremia due to extended-spectrum-beta-lactamase-producing Klebsiella pneumoniae with or without plasmid-mediated AmpC beta-lactamase DHA-1” (2010).

Usually MIC stands for the lowest concentration that inhibits growth of the organism. Low readings indicate a more susceptible organism, high ones a less susceptible organism. A word on the MIC50: it is the lowest concentration that inhibits either 50% of growth or 50% of the strains tested, depending on the study. The term MIC90 denotes the lowest concentration that inhibits either 90% of growth or 90% of the strains tested, depending on the study.

Assay type in all cases: functional
Assay [1] deals with Klebsiella pneumoniae. The experiment in a line: Antibacterial activity against ESBL-producing Klebsiella pneumoniae by Etest.
Assay [2] has as its system Klebsiella pneumoniae. Kind of assay: Antibacterial activity against plasmid-mediated AmpC beta-Lactamase DHA-1 and ESBL-producing Klebsiella pneumoniae by Etest.
The subject of assay [3] is Klebsiella pneumoniae. Kind of assay: Antibacterial activity against ESBL-producing Klebsiella pneumoniae by Etest in presence of Tazobactam.
The subject of assay [4] is Klebsiella pneumoniae. Kind of assay: Antibacterial activity against plasmid-mediated AmpC beta-Lactamase DHA-1 and ESBL-producing Klebsiella pneumoniae by Etest in presence of Tazobactam.

Converted amounts (≈) assume the structure as drawn. Some results are limits rather than exact numbers.

In the assay on Klebsiella pneumoniae [1], `C[C@@H](O)[C@H]1C(=O)N2C(C(=O)O)=C(S[C@@H]3CN[C@H](C(=O)Nc4cccc(C(=O)O)c4)C3)[C@H](C)[C@H]12` [ERTAPENEM] yielded an MIC of 0.015 µg/mL (≈ 0.0315 µM), an MIC50 of 0.015 µg/mL (≈ 0.0315 µM) and an MIC90 of 0.5 µg/mL (≈ 1.05 µM). Moreover, in the assay with Klebsiella pneumoniae [2], the MIC stood at 0.5 µg/mL (≈ 1.05 µM), the MIC50 came out at 0.5 µg/mL (≈ 1.05 µM) and the MIC90 was determined as 2 µg/mL (≈ 4.21 µM).

In the assay on Klebsiella pneumoniae [1], `C[C@@H](O)[C@H]1C(=O)N2C(C(=O)O)=C(S[C@@H]3CN[C@H](C(=O)N(C)C)C3)[C@H](C)[C@H]12` [MEROPENEM] returned an MIC50 of 0.03 µg/mL (≈ 0.0782 µM) and an MIC90 of 0.06 µg/mL (≈ 0.156 µM). Besides, in the assay on Klebsiella pneumoniae [2], the MIC50 turned out to be 0.12 µg/mL (≈ 0.313 µM) and the MIC90 amounted to 0.5 µg/mL (≈ 1.3 µM).

Regarding `CCN1CCN(C(=O)N[C@@H](C(=O)N[C@@H]2C(=O)N3[C@@H]2SC(C)(C)[C@@H]3C(=O)O)c2ccccc2)C(=O)C1=O` [PIPERACILLIN], the MIC50 in the assay with Klebsiella pneumoniae [3] and in the assay on Klebsiella pneumoniae [4] was 8 µg/mL each time. The figures for the MIC90 in the assay on Klebsiella pneumoniae [3] and in the assay on Klebsiella pneumoniae [4] were 32 µg/mL and 64 µg/mL, respectively.

Regarding `O=C(O)c1cn(C2CC2)c2cc(N3CCNCC3)c(F)cc2c1=O` [CIPROFLOXACIN], in the assay with Klebsiella pneumoniae [1], the MIC50 was determined as 0.125 µg/mL (≈ 0.377 µM) and the MIC90 is 8 µg/mL (≈ 24.1 µM). In the assay on Klebsiella pneumoniae [2], the MIC50 is over 32 µg/mL and the MIC90 was over 32 µg/mL.

For the compound `C[C@@H](O)[C@H]1C(=O)N2C(C(=O)O)=C(SCCNC=N)C[C@H]12` [IMIPENEM ANHYDROUS], in the assay with Klebsiella pneumoniae [1], the MIC50 worked out at 0.25 µg/mL (≈ 0.835 µM) and the MIC90 was 0.5 µg/mL (≈ 1.67 µM). In the assay with Klebsiella pneumoniae [2], this compound showed an MIC50 of 0.5 µg/mL (≈ 1.67 µM) and an MIC90 of 2 µg/mL (≈ 6.68 µM).

Regarding `NCC[C@H](O)C(=O)N[C@@H]1C[C@H](N)[C@@H](O[C@H]2O[C@H](CN)[C@@H](O)[C@H](O)[C@H]2O)[C@H](O)[C@H]1O[C@H]1O[C@H](CO)[C@@H](O)[C@H](N)[C@H]1O` [AMIKACIN], the MIC50 in the assay on Klebsiella pneumoniae [1] was 4 µg/mL (≈ 6.83 µM); against Klebsiella pneumoniae [2] it was over 256 µg/mL. For the same compound, the MIC90 is 32 µg/mL (≈ 54.6 µM) in the assay on Klebsiella pneumoniae [1] and over 256 µg/mL against Klebsiella pneumoniae [2].
